Experiment [1] can be described thus: LMP1-driven NF-kB reporter inhibition, dose response, cell-based, luciferase reporter, luminescence, dry powder, set 2 (AID 624376). In kind it is functional. For orientation: A reporter such as luciferase makes a cellular process visible.
The nature of experiment [2]: HEK293 cell viability, dose response, counter-screen for EBV LMP1 inhibitor project, dry powder, set 2 (AID 624374). In kind it is functional. A general note: Counterscreens check selectivity or assay interference.
Another experiment concerns A549. Briefly: A549 cell toxicity, dose response, cytotoxicity control, plate reader, cherry-pick samples (AID 687028). The class given is functional, cell-based. The settings on record: Homo sapiens.
Another experiment concerns the target Albumin (Bos taurus, UniProt P02769). Briefly: Counterscreen for inhibitors of T-cell receptor (TCR)-CD3 interaction: Fluorescence-based biochemical high throughput dose response assay to identify inhibitors of T-cell receptor (TCR)-CD3 interaction using a TAMRA-labeled BSA probe. In kind it is functional.
In experiment [3] the test system is Vero. Briefly: Vero cell toxicity, dose response, cytotoxicity control, plate reader, cherry-pick samples (AID 687020). The class given is functional, cell-based. As to conditions: Chlorocebus sabaeus.
The target in experiment [4] is Histone-lysine N-methyltransferase NSD2 (Homo sapiens, UniProt O96028). The class given is biochemical.
The target of experiment [5] is DNA dC->dU-editing enzyme APOBEC-3G (Homo sapiens, UniProt Q9HC16). The class given is functional.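 Note: Dose-response counterscreen measuring inhibition of APOBEC3G DNA deaminase activity, run while confirming APOBEC3A inhibitors.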
Experiment [6] deals with DNA dC->dU-editing enzyme APOBEC-3A (Homo sapiens, UniProt P31941). Nature of the experiment: Dose Response confirmation of small molecule APOBEC3A DNA Deaminase Inhibitors via a fluorescence-based single-stranded DNA deaminase assay. [Related pubchem assays (depositor defined):AID493011, AID493024]. The class given is functional.
Experiment [7] in a line: human group III sPLA2 inhibitors, dose response, biochemical, QFRET, IC50 (AID 743457).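 Note: green fluorescence rise as the enzyme cleaves BODIPY PC-A2 in liposomes; potency for inhibition of the enzyme.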
A further experiment addresses Cytochrome P450 3A4 (Homo sapiens, UniProt P08684).
The target of the next experiment is Cytochrome P450 2D6 (Homo sapiens, UniProt P10635).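 Note: CYP2D6 member of a cytochrome P450 panel assay.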
The next experiment has as its target Cytochrome P450 2C9 (Homo sapiens, UniProt P11712).
The target in experiment [8] is Fructose-bisphosphate aldolase (Mycobacterium tuberculosis, UniProt P9WQA3). Nature of the experiment: Fluorescence-based biochemical high throughput dose response assay for inhibitors of the fructose-bisphosphate aldolase (FBA) of M. tuberculosis. In kind it is functional.
The nature of experiment [9]: Late stage assay provider results from the probe development effort to identify inhibitors of the Plasmodium falciparum M17 Leucine Aminopeptidase (M17LAP): radiolabel-based cell-based dose response assay to identify compounds that inhibit P. falciparum growth in RBCs Set 2. The class given is functional.
In another experiment the target is Beta-galactosidase (Escherichia coli, UniProt Q8VNN2). Nature of the experiment: Dose response counterscreen for EBI2 assay utilizing the enzyme, b-galactosidase. The class given is functional.
A short description of experiment [10]: Luminescence Cell-Based Dose Retest to Confirm Inhibitors of Cancer Stem Cells. [Related pubchem assays (depositor defined):AID2717, AID2721]. The settings on record: Homo sapiens. In kind it is functional.
A short description of experiment [11]: Counterscreen for activators of the function of SWI/SNF related, matrix associated, actin dependent regulator of chromatin, subfamily a, member 2 (SMARCA2, BRM): Luminescence-based cell-based high throughput dose response assay to identify non-selective compounds using the VP16 reporter assay. In kind it is functional.
Experiment [12] has as its target T1, Methionyl-tRNA synthetase, putative (Trypanosoma brucei brucei, UniProt Q38C91).
T1 sequence (Q38C91 whole entry): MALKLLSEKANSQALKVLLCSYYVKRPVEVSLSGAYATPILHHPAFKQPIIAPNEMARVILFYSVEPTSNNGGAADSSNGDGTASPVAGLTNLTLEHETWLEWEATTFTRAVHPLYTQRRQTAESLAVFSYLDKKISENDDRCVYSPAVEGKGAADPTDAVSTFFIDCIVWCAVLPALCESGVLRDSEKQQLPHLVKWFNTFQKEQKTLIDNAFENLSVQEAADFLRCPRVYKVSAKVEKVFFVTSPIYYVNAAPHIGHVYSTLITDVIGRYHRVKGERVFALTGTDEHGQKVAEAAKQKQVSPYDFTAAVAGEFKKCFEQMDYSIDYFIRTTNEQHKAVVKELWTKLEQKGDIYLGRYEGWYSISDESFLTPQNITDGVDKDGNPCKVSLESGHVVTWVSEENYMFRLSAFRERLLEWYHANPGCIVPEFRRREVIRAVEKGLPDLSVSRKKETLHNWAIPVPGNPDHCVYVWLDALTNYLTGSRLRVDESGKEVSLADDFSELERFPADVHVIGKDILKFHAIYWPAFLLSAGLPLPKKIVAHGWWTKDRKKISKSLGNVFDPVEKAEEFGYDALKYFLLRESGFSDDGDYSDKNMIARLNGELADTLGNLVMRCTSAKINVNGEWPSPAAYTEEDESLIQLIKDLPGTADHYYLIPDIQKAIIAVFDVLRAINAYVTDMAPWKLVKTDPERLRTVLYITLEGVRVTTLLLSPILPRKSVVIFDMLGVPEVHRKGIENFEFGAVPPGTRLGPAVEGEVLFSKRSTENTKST
In kind it is functional, Trypanosoma brucei brucei strain 927/4 GUTat10.1.

Experiment [13] addresses SWI/SNF-related matrix-associated actin-dependent regulator of chromatin subfamily A member 2 (Homo sapiens, UniProt P51531). Briefly: Luminescence-based cell-based high throughput dose response assay to identify activators of the function of SWI/SNF related, matrix associated, actin dependent regulator of chromatin, subfamily a, member 2 (SMARCA2, BRM). The class given is functional.

In experiment [14] the target is Photoreceptor-specific nuclear receptor (Homo sapiens, UniProt Q9Y5X4). In kind it is functional, cell-based.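 Note: CHO-S cells with Gal4-NCOR and VP16-NR2E3 two-hybrid luciferase reporter.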
Experiment [15] is described as follows: Counterscreen for inhibitors of Trypanosoma brucei methionyl tRNA synthetase (MetRS): Luminescence-based cell-based high throughput dose response assay to identify compounds that are cytotoxic to Jurkat human T lymphocyte cells. In kind it is functional.
In experiment [16] the target is T1, Methionyl-tRNA synthetase, putative. In kind it is functional, Trypanosoma brucei brucei strain 927/4 GUTat10.1. This is another data set of the same source.
Experiment [17] has as its target Matrix metalloproteinase-14 (Homo sapiens, UniProt P50281). Briefly: Dose Response confirmation of uHTS hits for a small molecule inhibitors of MT1-MMP activation in a fluorescence assay set 1. In kind it is functional.
Experiment [18] is described as follows: growth suppression of PTEN-null colon cells, dose response, cell-based, HCT116 PTEN knockout (AID 1047).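 Note: HCT116 colon tumor cells with PTEN knocked out; cells exposed to compound for 60 hours before readout; potency for loss of cell viability measured by luminescence.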 In kind it is functional.
Experiment [19] is described as follows: cytotoxicity in HMLE control line with eGFP shRNA, dose response, counter-screen for HMLE_sh_ECad selective toxicity project, cell-based, HMLE_sh_eGFP, luminescence (AID 463074).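 Note: HMLE human mammary epithelial cells expressing control shRNA against eGFP.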 The class given is functional, Homo sapiens.
For experiment [20], the system named is Vero. Nature of the experiment: cells. In kind it is functional. As to conditions: Chlorocebus sabaeus.
Experiment [21] can be described thus: growth suppression of beta-catenin-knockout colon cells, dose response, cell-based, HCT116, human colon tumor (AID 1045).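 Note: HCT116 colon tumor cells with beta catenin knocked out; cells exposed to compound for 60 hours.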 The class given is functional.

The source made the active and inactive calls. Bounds are passed on as bounds.

We go through nine compounds from ChEMBL document CHEMBL1201862, “PubChem BioAssay data set” (2004).

Albumin, sequence (P02769 whole entry): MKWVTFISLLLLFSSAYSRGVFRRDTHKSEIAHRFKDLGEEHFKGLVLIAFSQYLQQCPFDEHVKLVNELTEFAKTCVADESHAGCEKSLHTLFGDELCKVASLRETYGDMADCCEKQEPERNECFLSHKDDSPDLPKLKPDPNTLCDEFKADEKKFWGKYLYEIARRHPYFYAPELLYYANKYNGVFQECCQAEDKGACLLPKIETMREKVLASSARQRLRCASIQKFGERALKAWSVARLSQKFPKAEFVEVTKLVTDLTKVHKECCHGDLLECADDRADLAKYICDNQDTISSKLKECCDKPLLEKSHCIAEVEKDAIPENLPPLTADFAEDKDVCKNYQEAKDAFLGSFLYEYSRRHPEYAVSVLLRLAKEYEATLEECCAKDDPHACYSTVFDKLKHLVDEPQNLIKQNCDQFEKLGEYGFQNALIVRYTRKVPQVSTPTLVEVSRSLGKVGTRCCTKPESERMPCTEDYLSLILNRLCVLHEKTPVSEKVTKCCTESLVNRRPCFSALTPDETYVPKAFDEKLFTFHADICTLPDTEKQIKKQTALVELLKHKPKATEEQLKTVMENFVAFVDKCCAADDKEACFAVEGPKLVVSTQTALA
Cytochrome P450 2D6, sequence (P10635 whole entry): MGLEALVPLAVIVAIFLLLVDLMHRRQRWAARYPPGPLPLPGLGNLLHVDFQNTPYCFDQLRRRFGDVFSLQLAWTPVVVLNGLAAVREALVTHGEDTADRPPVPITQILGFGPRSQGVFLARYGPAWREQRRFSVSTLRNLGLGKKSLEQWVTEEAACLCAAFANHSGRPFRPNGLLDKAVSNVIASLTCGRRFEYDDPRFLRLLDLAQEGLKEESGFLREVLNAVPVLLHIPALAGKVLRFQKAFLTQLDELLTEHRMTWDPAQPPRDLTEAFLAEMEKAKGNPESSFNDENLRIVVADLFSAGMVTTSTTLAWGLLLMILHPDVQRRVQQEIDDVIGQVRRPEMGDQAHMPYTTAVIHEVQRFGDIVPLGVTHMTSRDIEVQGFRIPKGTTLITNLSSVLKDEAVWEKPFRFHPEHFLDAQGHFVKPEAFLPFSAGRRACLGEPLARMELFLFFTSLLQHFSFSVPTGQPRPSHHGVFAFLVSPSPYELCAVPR
DNA dC->dU-editing enzyme APOBEC-3G, sequence (Q9HC16 whole entry): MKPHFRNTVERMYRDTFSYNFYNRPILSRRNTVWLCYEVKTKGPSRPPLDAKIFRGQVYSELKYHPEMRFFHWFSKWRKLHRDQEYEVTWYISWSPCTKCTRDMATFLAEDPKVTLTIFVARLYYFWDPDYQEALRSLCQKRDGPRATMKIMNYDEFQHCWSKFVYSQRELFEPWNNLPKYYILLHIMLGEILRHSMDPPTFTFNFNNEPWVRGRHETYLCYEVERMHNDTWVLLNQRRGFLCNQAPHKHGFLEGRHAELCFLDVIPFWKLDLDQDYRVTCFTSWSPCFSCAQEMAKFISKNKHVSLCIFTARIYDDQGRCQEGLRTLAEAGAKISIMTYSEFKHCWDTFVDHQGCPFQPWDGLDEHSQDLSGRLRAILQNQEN
DNA dC->dU-editing enzyme APOBEC-3A, sequence (P31941 whole entry): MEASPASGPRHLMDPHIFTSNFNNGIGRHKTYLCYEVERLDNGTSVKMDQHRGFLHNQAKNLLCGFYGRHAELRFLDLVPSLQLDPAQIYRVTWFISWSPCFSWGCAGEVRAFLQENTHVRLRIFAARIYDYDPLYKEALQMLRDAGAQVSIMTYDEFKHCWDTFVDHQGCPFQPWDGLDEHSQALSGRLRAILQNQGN
Beta-galactosidase, sequence (Q8VNN2 whole entry): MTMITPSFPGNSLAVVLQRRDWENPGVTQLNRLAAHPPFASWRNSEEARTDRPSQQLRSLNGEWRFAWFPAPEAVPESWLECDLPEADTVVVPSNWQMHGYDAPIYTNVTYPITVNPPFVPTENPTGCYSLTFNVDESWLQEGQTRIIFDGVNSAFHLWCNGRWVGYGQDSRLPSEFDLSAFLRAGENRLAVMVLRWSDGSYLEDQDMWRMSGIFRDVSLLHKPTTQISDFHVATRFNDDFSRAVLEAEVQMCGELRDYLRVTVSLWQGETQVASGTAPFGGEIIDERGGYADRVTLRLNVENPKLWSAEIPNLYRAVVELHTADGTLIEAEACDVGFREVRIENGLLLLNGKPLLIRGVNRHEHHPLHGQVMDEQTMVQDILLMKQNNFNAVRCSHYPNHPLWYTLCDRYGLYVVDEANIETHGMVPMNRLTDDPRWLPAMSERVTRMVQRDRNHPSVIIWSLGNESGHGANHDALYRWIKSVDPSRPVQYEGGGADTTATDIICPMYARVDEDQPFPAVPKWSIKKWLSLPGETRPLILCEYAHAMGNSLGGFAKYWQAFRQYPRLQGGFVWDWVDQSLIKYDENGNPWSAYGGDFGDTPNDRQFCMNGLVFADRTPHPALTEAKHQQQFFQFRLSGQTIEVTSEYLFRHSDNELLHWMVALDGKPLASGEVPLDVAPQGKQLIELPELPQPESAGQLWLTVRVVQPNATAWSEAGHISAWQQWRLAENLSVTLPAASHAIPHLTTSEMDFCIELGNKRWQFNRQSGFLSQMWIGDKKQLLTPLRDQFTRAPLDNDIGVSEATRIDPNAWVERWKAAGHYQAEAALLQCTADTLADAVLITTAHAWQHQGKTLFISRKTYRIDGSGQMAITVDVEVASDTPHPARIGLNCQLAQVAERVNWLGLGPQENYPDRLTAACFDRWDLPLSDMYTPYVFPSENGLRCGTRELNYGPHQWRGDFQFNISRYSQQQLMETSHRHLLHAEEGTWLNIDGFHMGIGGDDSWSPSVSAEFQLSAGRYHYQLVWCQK
Cytochrome P450 2C9, sequence (P11712 whole entry): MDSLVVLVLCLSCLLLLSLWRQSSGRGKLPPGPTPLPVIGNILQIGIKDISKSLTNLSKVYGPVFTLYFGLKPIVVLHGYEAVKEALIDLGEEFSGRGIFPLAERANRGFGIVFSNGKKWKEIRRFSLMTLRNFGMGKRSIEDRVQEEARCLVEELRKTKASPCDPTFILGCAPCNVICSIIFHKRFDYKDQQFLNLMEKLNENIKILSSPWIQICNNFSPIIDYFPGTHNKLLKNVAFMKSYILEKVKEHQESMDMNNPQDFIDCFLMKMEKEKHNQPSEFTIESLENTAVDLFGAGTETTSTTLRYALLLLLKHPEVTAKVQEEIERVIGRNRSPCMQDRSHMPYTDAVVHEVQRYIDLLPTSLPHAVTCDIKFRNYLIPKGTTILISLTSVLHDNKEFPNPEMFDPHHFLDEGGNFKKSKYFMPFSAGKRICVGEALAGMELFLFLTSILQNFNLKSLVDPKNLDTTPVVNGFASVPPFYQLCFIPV
Photoreceptor-specific nuclear receptor, sequence (Q9Y5X4 whole entry, the tested form may be a part): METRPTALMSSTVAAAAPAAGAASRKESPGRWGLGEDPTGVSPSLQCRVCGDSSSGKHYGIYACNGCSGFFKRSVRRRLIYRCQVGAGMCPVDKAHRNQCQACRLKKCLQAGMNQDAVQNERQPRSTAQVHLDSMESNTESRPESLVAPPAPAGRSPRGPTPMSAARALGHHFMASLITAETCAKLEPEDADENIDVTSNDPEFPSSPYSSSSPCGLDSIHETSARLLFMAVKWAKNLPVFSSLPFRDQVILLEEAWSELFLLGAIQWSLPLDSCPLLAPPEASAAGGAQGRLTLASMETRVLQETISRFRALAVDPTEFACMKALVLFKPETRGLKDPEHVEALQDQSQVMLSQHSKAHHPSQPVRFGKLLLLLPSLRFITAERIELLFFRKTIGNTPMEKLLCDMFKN
Histone-lysine N-methyltransferase NSD2, sequence (O96028 whole entry): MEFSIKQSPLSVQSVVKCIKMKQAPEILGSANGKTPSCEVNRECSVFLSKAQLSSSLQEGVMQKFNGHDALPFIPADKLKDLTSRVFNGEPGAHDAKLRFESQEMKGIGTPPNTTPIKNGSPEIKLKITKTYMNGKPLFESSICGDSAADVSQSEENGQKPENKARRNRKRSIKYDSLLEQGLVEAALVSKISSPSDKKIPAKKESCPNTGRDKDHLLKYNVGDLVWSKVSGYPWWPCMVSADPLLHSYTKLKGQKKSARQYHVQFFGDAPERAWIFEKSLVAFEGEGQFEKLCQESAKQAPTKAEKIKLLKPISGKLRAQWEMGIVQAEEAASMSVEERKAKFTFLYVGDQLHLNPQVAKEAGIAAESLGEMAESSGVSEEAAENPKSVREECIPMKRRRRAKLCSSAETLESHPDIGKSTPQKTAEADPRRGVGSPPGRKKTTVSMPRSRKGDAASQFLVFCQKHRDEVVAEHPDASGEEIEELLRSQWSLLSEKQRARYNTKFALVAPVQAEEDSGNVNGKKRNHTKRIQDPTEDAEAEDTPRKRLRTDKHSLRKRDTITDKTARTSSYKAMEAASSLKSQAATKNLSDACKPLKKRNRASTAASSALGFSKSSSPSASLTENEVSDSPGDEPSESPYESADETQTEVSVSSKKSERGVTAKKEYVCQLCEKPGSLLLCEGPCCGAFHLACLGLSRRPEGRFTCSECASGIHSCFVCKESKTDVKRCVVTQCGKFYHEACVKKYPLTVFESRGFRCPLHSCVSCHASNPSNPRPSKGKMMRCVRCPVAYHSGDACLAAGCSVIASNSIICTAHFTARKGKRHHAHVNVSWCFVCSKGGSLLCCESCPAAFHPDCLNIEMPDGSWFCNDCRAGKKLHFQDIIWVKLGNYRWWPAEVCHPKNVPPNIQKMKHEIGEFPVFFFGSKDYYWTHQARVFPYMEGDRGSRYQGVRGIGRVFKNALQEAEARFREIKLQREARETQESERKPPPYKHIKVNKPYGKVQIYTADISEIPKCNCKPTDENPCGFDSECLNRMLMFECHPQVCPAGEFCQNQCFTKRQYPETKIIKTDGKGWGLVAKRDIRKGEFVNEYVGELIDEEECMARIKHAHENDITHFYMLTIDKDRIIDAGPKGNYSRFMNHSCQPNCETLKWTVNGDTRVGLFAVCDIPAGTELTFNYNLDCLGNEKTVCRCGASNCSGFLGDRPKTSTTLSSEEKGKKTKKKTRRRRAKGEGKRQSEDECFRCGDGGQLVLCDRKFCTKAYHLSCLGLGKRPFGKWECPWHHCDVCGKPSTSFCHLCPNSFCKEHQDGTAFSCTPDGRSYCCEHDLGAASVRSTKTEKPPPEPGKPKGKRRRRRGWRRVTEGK

For `O=C(Cc1ccccn1)NCC[C@@H]1CC[C@H](NC(=O)Nc2ccc(Cl)cc2)[C@@H](CO)O1`, the AbsAC35 in [1] was found to be 74.18 µM; in experiment [2], 102.52 µM.
`O=C(NNC(=O)c1ccccc1O)c1ccccc1O`: the values for the AC50 in the experiment with A549 and in the experiment with Vero [3] were 2.46 µM (active) and 1.05 µM (active), respectively. In addition, the IC50 at Albumin was > 93.9 µM (inactive).
Turning to `Cc1cc(/C=C2\C(=O)NC(=O)N(c3cccc(F)c3)C2=O)c(C)n1-c1cc(C(=O)O)cc(C(=O)O)c1`, the AC50 in [4] is > 20 µM (inactive). For the same compound, the results for the IC50 in experiment [5] and in [6] were 27.4 µM (active) and 16.8 µM (active), respectively.
For `S=C(Nc1ccccc1)Nc1nccs1`, the IC50 in [7] was > 122 µM (inactive). Besides, the AC50 was 15.8 µM (inconclusive) on Cytochrome P450 3A4, 31.6 µM (inconclusive) on Cytochrome P450 2D6 and 20 µM (inconclusive) on Cytochrome P450 2C9.
Regarding `COC1=Nc2ccccc2N2CCN=C12`, the IC50 in experiment [8] is 2.07 µM (active).
For `CCCCc1ccc(CC(=O)NO)cc1`, in experiment [9], the IC50 was 4.3 µM (active).
Consider `COC(=O)c1cc(=O)n(Cc2ccc(F)cc2)/c(=N/c2ccccc2)s1`, for which, at Beta-galactosidase, the IC50 is > 80 µM (inactive). For the same compound, the half-maximal activity concentration (AC50) in experiment [10] is 4.82 µM (active).
With `Cc1cccc(OCCCC(=O)Nc2nc3ccccc3[nH]2)c1`, the EC50 in [11] and in experiment [13] was > 91.1 µM (inactive) in each case. Further, the IC50 in experiment [12] is 4.34 µM (active); in [14], 2.88 µM (active); in experiment [15] it was 29.6 µM (inactive); in [16] it was 39.5 µM (inactive).
For `O=C(NNc1c2ccccc2nc2ccccc12)c1cc2ccccc2cc1O`, the IC50 in [17] is 24.4 µM (inactive). Further, the EC50 in experiment [18] is 6.4 µM (active); in [21] it was 7.12 µM (active). The AC50 in experiment [19] was 28.2 µM (active); in experiment [10] it was 27 µM (active). Besides, the CC50 with Vero [20] is 2.61 µM (active).

The AC50 is the concentration at which the activity in the assay is half-maximal. A word on the IC50: it is the midpoint of a concentration-inhibition curve. Broadly, the EC50 is the concentration giving half of the maximal effect. In general, CC50 refers to the concentration giving 50% cytotoxicity.
